Test results taken from article PMC7932537, “Quantitative profiling of protease specificity” (PLoS Computational Biology, 2021).

Columns and labels:
MMP-2 = test: Substrate phage display with NGS: relative probability (RP) of P3-P1' tetramer clusters; format: biochemical, human; details: for relative probability (RP) of matching tetramer: P3-P1' tetramer matching the MS detected MMP2 cleavage sequence, RP_above_4.5; for normalized RP - MMP2: normalized RP of matching tetramer; for MMP2 relative probability (RP): MMP2 tetramers from unique substrates, unrounded values
MMP-9 = test: as above; format: biochemical, human; details: for normalized RP - MMP9: normalized RP of matching tetramer; for corresponding MMP9 relative probability (RP): MMP2 tetramers from unique substrates, RP of same tetramer for MMP9
[1] = MMP2, RP of matching P3-P1' tetramer, common set of MMP2-9 selectome, RP above KL threshold
[2] = MMP9, RP of matching P3-P1' tetramer, common set of MMP2-9 selectome
[3] = RP of matching tetramer, unique part of MMP2 selectome, RP above KL threshold
[4] = RP of matching tetramer, unique part of MMP2 selectome
[5] = RP of the P3-P1' tetramer, MMP2 substrate phage display/NGS, tetramers of physiologic MEROPS substrates common to MMP2 and MMP9
[6] = RP of the P3-P1' tetramer, MMP9 substrate phage display/NGS, tetramers of physiologic MEROPS substrates common to MMP2 and MMP9
[7] = RP of the P3-P1' tetramer cluster contained in the hexamer, 200 nM MMP-2, 2 h, 37°C, two rounds of selection
[8] = MMP9, RP of the P3-P1' tetramer contained in the hexamer substrate (substrate phage display, NGS)
[9] = RP according to MMP2, P3-P1' tetramer of unique physiologic MMP2 substrates from MEROPS
[10] = RP according to MMP9, P3-P1' tetramer of unique physiologic MMP9 substrates from MEROPS

Q: For PYSI, which “relative probability (RP) (acc.to MMP2)” value (MMP-2; [1]) is on record?
A: 23.85

Q: What about the “relative probability (RP) of matching tetramer” value (MMP-2) of the same substance?
A: 23.85

Q: What about the “relative probability (RP) (acc.to MMP9)” value (MMP-9; [2]) of the same substance?
A: 45.53

Q: With QAQL as the substance, how does the “relative probability (RP) of matching tetramer” value (MMP-2) read?
A: 6.16

Q: What about the “relative probability (RP) (acc.to MMP2)” value (MMP-2; [3]) of the same substance?
A: 6.16

Q: And the “normalized RP - MMP2” value (MMP-2; unique part of MMP2 selectome)?
A: 0.1687

Q: What about the “relative probability (RP) (acc.to MMP9)” value (MMP-9; [4]) of the same substance?
A: 0.06

Q: What about the “normalized RP - MMP9” value (MMP-9; unique part of MMP2 selectome) of the same substance?
A: 0.001145

Q: How did the “relative probability (RP) (acc.to MMP2)” value (MMP-2; [5]) turn out when QGAI was run?
A: 1.94

Q: What about the “relative probability (RP) (acc.to MMP9)” value (MMP-9; [6]) of the same substance?
A: 0

Q: How did the “relative probability (RP)” value (MMP-2; [7]) turn out when QGPAAI was run?
A: 32.0972

Q: What about the “relative probability (RP)” value (MMP-9; [8]) of the same substance?
A: 46.1642

Q: With QPLEIR as the substance, how does the “relative probability (RP)” value (MMP-2; [7]) read?
A: 19.9123

Q: And the “relative probability (RP)” value (MMP-9; [8])?
A: 43.9826

Q: What does the source list for QPPLPL?
A: relative probability (RP) (MMP-2; [7]): 35.0814; relative probability (RP) (MMP-9; [8]): 49.0268

Q: How did the “relative probability (RP)” value (MMP-2; [7]) turn out when QQPQAL was run?
A: 34.4508

Q: And the “relative probability (RP)” value (MMP-9; [8])?
A: 48.457

Q: What does the source list for QQPSRL?
A: relative probability (RP) (MMP-2; [7]): 31.7732; relative probability (RP) (MMP-9; [8]): 39.8157

Q: QRGI was tested. Which avg_RP (MMP-2; MMP2 - no binning, average relative probability of the tetramer, redundant tetramers averaged out) did it give?
A: 7.4836

Q: And the “MMP2 relative probability (RP)” value (MMP-2)?
A: 7.484

Q: What about the “Relative probability (RP) rank” value (MMP-2; [9]) of the same substance?
A: 6090

Q: What about the “relative probability (RP)” value (MMP-2; [9]) of the same substance?
A: 7.48

Q: What about the “relative probability (RP) (acc.to MMP2)” value (MMP-2; [5]) of the same substance?
A: 7.48

Q: What about the “corresponding MMP9 relative probability (RP)” value (MMP-9) of the same substance?
A: 0.7406

Q: And the “Relative probability (RP) rank” value (MMP-9; [10])?
A: 19198

Q: And the “relative probability (RP)” value (MMP-9; [10])?
A: 0.74

Q: And the “relative probability (RP) (acc.to MMP9)” value (MMP-9; [6])?
A: 0.74

Q: Which results are given for QSPINL?
A: relative probability (RP) (MMP-2; [7]): 31.6393; relative probability (RP) (MMP-9; [8]): 44.8884

Q: For RGEL, which “MMP2 relative probability (RP)” value (MMP-2) is on record?
A: 14.9989

Q: And the “Relative probability (RP) rank” value (MMP-2; [9])?
A: 3096

Q: And the “relative probability (RP)” value (MMP-2; [9])?
A: 15

Q: And the “corresponding MMP9 relative probability (RP)” value (MMP-9)?
A: 0.3681

Q: RMMREL was tested. Which “relative probability (RP)” value (MMP-2; [7]) did it give?
A: 19.1524

Q: What about the “relative probability (RP)” value (MMP-9; [8]) of the same substance?
A: 21.3182

Q: Which “relative probability (RP)” value (MMP-2; [7]) does the source give for RPEDLR here?
A: 6.012

Q: What about the “relative probability (RP)” value (MMP-9; [8]) of the same substance?
A: 13.0748

Q: What does the source list for RRPRPL?
A: relative probability (RP) (MMP-2; [7]): 34.3303; relative probability (RP) (MMP-9; [8]): 46.7888

Q: How did the “relative probability (RP)” value (MMP-2; [7]) turn out when SAAQPL was run?
A: 14.4283

Q: What about the “relative probability (RP)” value (MMP-9; [8]) of the same substance?
A: 28.189

Q: With SAPL as the substance, how does the “relative probability (RP) of matching tetramer” value (MMP-2) read?
A: 18.44

Q: What about the “relative probability (RP) (acc.to MMP2)” value (MMP-2; [3]) of the same substance?
A: 18.44

Q: And the “normalized RP - MMP2” value (MMP-2; unique part of MMP2 selectome)?
A: 0.5049

Q: What about the “relative probability (RP) (acc.to MMP9)” value (MMP-9; [4]) of the same substance?
A: 2.49

Q: And the “normalized RP - MMP9” value (MMP-9; unique part of MMP2 selectome)?
A: 0.04754

Q: What does the source list for SDEL?
A: relative probability (RP) (acc.to MMP2) (MMP-2; [5]): 0; relative probability (RP) (acc.to MMP9) (MMP-9; [6]): 0

Q: For SFGL, which “corresponding MMP2 relative probability (RP)” value (MMP-2; MMP9 tetramers from unique substrates, RP of same tetramer for MMP2) is on record?
A: 10.7897

Q: What about the “relative probability (RP) (acc.to MMP2)” value (MMP-2; [5]) of the same substance?
A: 0.19

Q: And the “MMP9 relative probability (RP)” value (MMP-9; MMP9 tetramers from unique substrates, unrounded values)?
A: 0.1902

Q: And the “relative probability (RP) (acc.to MMP9)” value (MMP-9; [6])?
A: 10.79

Q: With SIPLPL as the substance, how does the “relative probability (RP)” value (MMP-2; [7]) read?
A: 35.0814

Q: And the “relative probability (RP)” value (MMP-9; [8])?
A: 49.0268

Q: SKYL was tested. Which “relative probability (RP) (acc.to MMP2)” value (MMP-2; [5]) did it give?
A: 4.49

Q: What about the “relative probability (RP) (acc.to MMP9)” value (MMP-9; [6]) of the same substance?
A: 0.25

Q: How did the “relative probability (RP) (acc.to MMP2)” value (MMP-2; [5]) turn out when SLPQ was run?
A: 0.51

Q: What about the “relative probability (RP) (acc.to MMP9)” value (MMP-9; [6]) of the same substance?
A: 0.1

Q: Which “relative probability (RP)” value (MMP-2; [7]) does the source give for SPMAFS here?
A: 29.2698

Q: What about the “relative probability (RP)” value (MMP-9; [8]) of the same substance?
A: 45.5118

Q: With SPPAAI as the substance, how does the “relative probability (RP)” value (MMP-2; [7]) read?
A: 32.0972

Q: And the “relative probability (RP)” value (MMP-9; [8])?
A: 46.1642

Q: SRPAEF was tested. Which “relative probability (RP)” value (MMP-2; [7]) did it give?
A: 19.4662

Q: And the “relative probability (RP)” value (MMP-9; [8])?
A: 11.7405

Q: For TAPSSQ, which “relative probability (RP)” value (MMP-2; [7]) is on record?
A: 25.0042

Q: What about the “relative probability (RP)” value (MMP-9; [8]) of the same substance?
A: 27.1142

Q: Which “relative probability (RP) (acc.to MMP2)” value (MMP-2; [5]) does the source give for TGLT here?
A: 0.24

Q: What about the “Relative probability (RP) rank” value (MMP-9; [10]) of the same substance?
A: 41284

Q: What about the “relative probability (RP)” value (MMP-9; [10]) of the same substance?
A: 0.21

Q: What about the “relative probability (RP) (acc.to MMP9)” value (MMP-9; [6]) of the same substance?
A: 0.21

Q: TLGL was tested. Which “relative probability (RP) (acc.to MMP2)” value (MMP-2; [1]) did it give?
A: 6

Q: And the “relative probability (RP) of matching tetramer” value (MMP-2)?
A: 6

Q: And the “relative probability (RP) (acc.to MMP2)” value (MMP-2; RP of matching tetramer, common MMP2-9 selectome)?
A: 6

Q: What about the “relative probability (RP) (acc.to MMP9)” value (MMP-9; [2]) of the same substance?
A: 9.79

Q: What about the “relative probability (RP)” value (MMP-9; MMP9, RP of the P3-P1' tetramer matching the MS detected cleavage, RP above 4.7, substrate phage display with NGS) of the same substance?
A: 9.79

Q: And the “relative probability (RP) (acc.to MMP9)” value (MMP-9; RP of matching tetramer, common MMP2-9 selectome, RP above KL threshold)?
A: 9.79
